# According to PMC9887116, “SDI-118, a novel procognitive SV2A modulator: First-in-human randomized controlled trial including PET/fMRI assessment of target engagement” (Frontiers in Pharmacology, 2023):
# Assays:
# [1] = cardiovascular safety pharmacology study in dogs; format: in vivo
# SV2B = conditions: relative to SV2A
# Text: (§1) ([Löscher et al., 2016]). […] ([Lynch et al., 2004]; [Matagne et al., 2008]).
# SV2C = conditions: relative to SV2A
# Text: as §1
# SV2A = test: minimum anticipated biological effect level in experimental rodent models; format: in vivo
# Experimental: (§2) The study consisted of three parts. […] No stratification was performed.
# [2] = first-in-human single oral dose safety and tolerability (adverse events)
# Experimental: (§4) The study consisted of three parts. Part A was a double-blind, placebo-controlled (in a 6:2 SDI-118:placebo ratio), single ascending oral dose study performed in 16 subjects equally divided into two cohorts. […] Dose levels of .3, 1, 3, 10, 30, 60, 90 and 120 mg of SDI-118 were set to be administered in an alternating panel design with a minimum washout period of 7 days between subsequent periods. In each period two different sentinel subjects were dosed (in a 1:1 SDI-118:placebo ratio) and followed-up for safety for at least 48 h before the rest of the cohort received the same dose level of the study drug.
# (§5) Safety and tolerability were assessed by questioning for adverse events (AEs), vital signs measurements (supine and orthostatic), 12-lead ECGs (always acquired in triplicate except during screening and post-study visit), standard lab safety tests on blood and urine samples, and physical and neurological examinations at regular time-points throughout the study.
# [3] = 12-lead ECG QT-interval assessment in first-in-human study; format: in vivo, human (healthy male subjects)
# Experimental: as §5
# [4] = set-up: species or system rats; conditions: rat, in vivo
# [5] = in vivo
# Experimental: as §4, §5
# [6] = plasma pharmacokinetics, Part A single ascending dose; format: in vivo, human (healthy male subjects)
# Experimental: as §2
# (§3) Blood samples for PK analysis were taken at regular time-points up to approximately 96 h post-dose in Part A and C. During the study, a protocol amendment was approved to extend the PK sampling scheme to include samples up to approximately 144 h post-dose, starting from the fourth dosing period. The rationale for this amendment was a longer than anticipated terminal elimination half-life of SDI-118 as concluded from preliminary PK data of the first three dosing periods. Plasma concentrations of SDI-118 were assayed using a GLP validated UPLC/MS-MS method. This method is linear for a range of concentrations from 0.200 to 500 ng/ml, with a lower limit of quantification (LLOQ) of 0.200 ng/ml. The following PK parameters were estimated: maximum plasma concentration Cmax, time of maximum plasma concentration Tmax, area under the plasma concentration versus time curve AUC, AUC0-last (up to the last quantifiable concentration Clast), AUCinf (extrapolated to infinity), and apparent terminal elimination half-life t½. Dose proportionality of SDI-118 Cmax, AUC0-last, and AUCinf from Part A was calculated based on a mixed-effect power model. Food effect on SDI-118 Cmax, AUC0-last, and AUCinf from Part C was calculated using a 90% confidence interval (CI) on geometric mean ratios (fed/fasted) based on a mixed-effect analysis of variance (ANOVA) with median difference in Tmax with 90% CI. Major interaction was excluded if the 90% CI on AUC and Cmax ratios (fed/fasted) were within the 50%–200% boundaries. The food effect assessment in Part C was performed on a secondary population, i.e. the PK completers set, which excluded one subject who discontinued the study after one dosing period (cfr. infra).
# [7] = target: human recombinant SV2A (hSV2A) (Homo sapiens, UniProt Q7L0J3); test: in vitro radioligand binding study using human recombinant SV2A; conditions: read-out: half maximal inhibitory concentration (IC50)
# Chain of human recombinant SV2A (hSV2A) (Q7L0J3 whole entry): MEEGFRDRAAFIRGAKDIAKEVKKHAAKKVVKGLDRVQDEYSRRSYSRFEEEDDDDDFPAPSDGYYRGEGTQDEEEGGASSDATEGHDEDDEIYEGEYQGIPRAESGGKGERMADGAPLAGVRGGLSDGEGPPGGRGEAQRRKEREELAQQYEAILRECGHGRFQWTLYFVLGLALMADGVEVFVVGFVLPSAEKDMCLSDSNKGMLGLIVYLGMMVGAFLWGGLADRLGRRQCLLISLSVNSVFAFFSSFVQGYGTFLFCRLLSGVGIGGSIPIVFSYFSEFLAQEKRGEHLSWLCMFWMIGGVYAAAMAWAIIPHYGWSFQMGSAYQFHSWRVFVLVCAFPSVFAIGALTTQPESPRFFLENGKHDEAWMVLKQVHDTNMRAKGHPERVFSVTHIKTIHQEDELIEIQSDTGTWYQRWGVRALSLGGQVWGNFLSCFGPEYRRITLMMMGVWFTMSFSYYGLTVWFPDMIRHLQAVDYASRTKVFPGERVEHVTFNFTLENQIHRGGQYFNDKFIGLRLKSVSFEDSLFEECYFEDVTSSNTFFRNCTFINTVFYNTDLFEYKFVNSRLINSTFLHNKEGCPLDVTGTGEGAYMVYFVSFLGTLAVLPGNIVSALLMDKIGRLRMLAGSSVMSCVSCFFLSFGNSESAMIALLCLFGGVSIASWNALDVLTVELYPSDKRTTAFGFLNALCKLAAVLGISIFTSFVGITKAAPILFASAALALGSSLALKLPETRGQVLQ
# Text: as §1
# [8] = food effect on pharmacokinetics, Part C; format: in vivo, human (healthy male subjects); conditions: 10 mg
# Experimental: as §3
# [9] = all subjects (n = 32), all single doses pooled
# [10] = all subjects (n = 32), only at 80 mg
smiles,measurement,setting,value
O=C1C[C@H](c2cc(F)c(F)c(F)c2)CN1Cn1ncnc1Cl [SDI-118],findings in cardiovascular safety pharmacology study,[1],absence of any adverse findings
same,selectivity over SV2B,SV2B,over 1000 fold
same,selectivity over SV2C,SV2C,over 100 fold
same,SV2A occupancy at which MABEL appeared to start,SV2A,approximately 10%
same,"dizziness, drug related TEAE, number of events",[2]; [9],12 events
same,"dizziness, drug related TEAE, number of subjects",[2]; [9],nine
same,"hypersomnia, drug related TEAE, number of events",[2]; [9],6 events
same,"hypersomnia, drug related TEAE, number of subjects",[2]; [9],five
same,"somnolence, drug related TEAE, number of events",[2]; [10],2 events
same,"somnolence, drug related TEAE, number of subjects",[2]; [10],two
same,All drug related TEAEs: N (%) (number of subjects),[2]; single oral dose 1 mg (N=8),1 (12.5) N (%)
same,All drug related TEAEs: No. (number of observations),[2]; single oral dose 1 mg (N=8),1
same,"Headache, drug related TEAE: N (%) (number of subjects)",[2]; single oral dose 1 mg (N=8),1 (12.5) N (%)
same,"Headache, drug related TEAE: No. (number of observations)",[2]; single oral dose 1 mg (N=8),1
same,"Nervous System Disorders, drug related TEAEs: N (%) (number of subjects)",[2]; single oral dose 1 mg (N=8),1 (12.5) N (%)
same,"Nervous System Disorders, drug related TEAEs: No. (number of observations)",[2]; single oral dose 1 mg (N=8),1
same,All drug related TEAEs: N (%) (number of subjects),[2]; single oral dose 3 mg (N=6),1 (16.7) N (%)
same,All drug related TEAEs: No. (number of observations),[2]; single oral dose 3 mg (N=6),1
same,"Cardiac Disorders, drug related TEAEs: N (%) (number of subjects)",[2]; single oral dose 3 mg (N=6),1 (16.7) N (%)
same,"Cardiac Disorders, drug related TEAEs: No. (number of observations)",[2]; single oral dose 3 mg (N=6),1
same,"Postural Dizziness, drug related TEAE: N (%) (number of subjects)",[2]; single oral dose 3 mg (N=6),1 (16.7) N (%)
same,"Postural Dizziness, drug related TEAE: No. (number of observations)",[2]; single oral dose 3 mg (N=6),1
same,All drug related TEAEs: N (%) (number of subjects),[2]; single oral dose 10 mg (N=16),4 (66.7) N (%)
same,All drug related TEAEs: No. (number of observations),[2]; single oral dose 10 mg (N=16),5
same,"Blurred vision, drug related TEAE: N (%) (number of subjects)",[2]; single oral dose 10 mg (N=16),1 (16.7) N (%)
same,"Blurred vision, drug related TEAE: No. (number of observations)",[2]; single oral dose 10 mg (N=16),1
same,"Dizziness, drug related TEAE: N (%) (number of subjects)",[2]; single oral dose 10 mg (N=16),1 (16.7) N (%)
same,"Dizziness, drug related TEAE: No. (number of observations)",[2]; single oral dose 10 mg (N=16),1
same,"Eye Disorders, drug related TEAEs: N (%) (number of subjects)",[2]; single oral dose 10 mg (N=16),1 (16.7) N (%)
same,"Eye Disorders, drug related TEAEs: No. (number of observations)",[2]; single oral dose 10 mg (N=16),1
same,"Fatigue, drug related TEAE: N (%) (number of subjects)",[2]; single oral dose 10 mg (N=16),1 (16.7) N (%)
same,"Fatigue, drug related TEAE: No. (number of observations)",[2]; single oral dose 10 mg (N=16),1
same,"General Disorders, drug related TEAEs: N (%) (number of subjects)",[2]; single oral dose 10 mg (N=16),1 (16.7) N (%)
same,"General Disorders, drug related TEAEs: No. (number of observations)",[2]; single oral dose 10 mg (N=16),1
same,"Hypersomnia, drug related TEAE: N (%) (number of subjects)",[2]; single oral dose 10 mg (N=16),2 (33.3) N (%)
same,"Hypersomnia, drug related TEAE: No. (number of observations)",[2]; single oral dose 10 mg (N=16),2
same,"Nervous System Disorders, drug related TEAEs: N (%) (number of subjects)",[2]; single oral dose 10 mg (N=16),3 (50.0) N (%)
same,"Nervous System Disorders, drug related TEAEs: No. (number of observations)",[2]; single oral dose 10 mg (N=16),3
same,All drug related TEAEs: N (%) (number of subjects),[2]; single oral dose 20 mg (N=8),4 (50.0) N (%)
same,All drug related TEAEs: No. (number of observations),[2]; single oral dose 20 mg (N=8),4
same,"Dizziness, drug related TEAE: N (%) (number of subjects)",[2]; single oral dose 20 mg (N=8),4 (50.0) N (%)
same,"Dizziness, drug related TEAE: No. (number of observations)",[2]; single oral dose 20 mg (N=8),4
same,"Nervous System Disorders, drug related TEAEs: N (%) (number of subjects)",[2]; single oral dose 20 mg (N=8),4 (50.0) N (%)
same,"Nervous System Disorders, drug related TEAEs: No. (number of observations)",[2]; single oral dose 20 mg (N=8),4
same,All drug related TEAEs: N (%) (number of subjects),[2]; single oral dose 40 mg (N=6),3 (50.0) N (%)
same,All drug related TEAEs: No. (number of observations),[2]; single oral dose 40 mg (N=6),4
same,"Dizziness, drug related TEAE: N (%) (number of subjects)",[2]; single oral dose 40 mg (N=6),3 (50.0) N (%)
same,"Dizziness, drug related TEAE: No. (number of observations)",[2]; single oral dose 40 mg (N=6),3
same,"Hypersomnia, drug related TEAE: N (%) (number of subjects)",[2]; single oral dose 40 mg (N=6),1 (16.7) N (%)
same,"Hypersomnia, drug related TEAE: No. (number of observations)",[2]; single oral dose 40 mg (N=6),1
same,"Nervous System Disorders, drug related TEAEs: N (%) (number of subjects)",[2]; single oral dose 40 mg (N=6),3 (50.0) N (%)
same,"Nervous System Disorders, drug related TEAEs: No. (number of observations)",[2]; single oral dose 40 mg (N=6),4
same,All drug related TEAEs: N (%) (number of subjects),[2]; single oral dose 60 mg (N=6),3 (50.0) N (%)
same,All drug related TEAEs: No. (number of observations),[2]; single oral dose 60 mg (N=6),4
same,"Cardiac Disorders, drug related TEAEs: N (%) (number of subjects)",[2]; single oral dose 60 mg (N=6),1 (16.7) N (%)
same,"Cardiac Disorders, drug related TEAEs: No. (number of observations)",[2]; single oral dose 60 mg (N=6),1
same,"Dizziness, drug related TEAE: N (%) (number of subjects)",[2]; single oral dose 60 mg (N=6),2 (33.3) N (%)
same,"Dizziness, drug related TEAE: No. (number of observations)",[2]; single oral dose 60 mg (N=6),2
same,"Hypersomnia, drug related TEAE: N (%) (number of subjects)",[2]; single oral dose 60 mg (N=6),1 (16.7) N (%)
same,"Hypersomnia, drug related TEAE: No. (number of observations)",[2]; single oral dose 60 mg (N=6),1
same,"Nervous System Disorders, drug related TEAEs: N (%) (number of subjects)",[2]; single oral dose 60 mg (N=6),2 (33.3) N (%)
same,"Nervous System Disorders, drug related TEAEs: No. (number of observations)",[2]; single oral dose 60 mg (N=6),3
same,"Postural Dizziness, drug related TEAE: N (%) (number of subjects)",[2]; single oral dose 60 mg (N=6),1 (16.7) N (%)
same,"Postural Dizziness, drug related TEAE: No. (number of observations)",[2]; single oral dose 60 mg (N=6),1
same,All drug related TEAEs: N (%) (number of subjects),[2]; single oral dose 80 mg (N=6),4 (66.7) N (%)
same,All drug related TEAEs: No. (number of observations),[2]; single oral dose 80 mg (N=6),8
same,"Dizziness, drug related TEAE: N (%) (number of subjects)",[2]; single oral dose 80 mg (N=6),2 (33.3) N (%)
same,"Dizziness, drug related TEAE: No. (number of observations)",[2]; single oral dose 80 mg (N=6),2
same,"Headache, drug related TEAE: N (%) (number of subjects)",[2]; single oral dose 80 mg (N=6),1 (16.7) N (%)
same,"Headache, drug related TEAE: No. (number of observations)",[2]; single oral dose 80 mg (N=6),1
same,"Hypersomnia, drug related TEAE: N (%) (number of subjects)",[2]; single oral dose 80 mg (N=6),2 (33.3) N (%)
same,"Hypersomnia, drug related TEAE: No. (number of observations)",[2]; single oral dose 80 mg (N=6),2
same,"Irritability, drug related TEAE: N (%) (number of subjects)",[2]; single oral dose 80 mg (N=6),1 (16.7) N (%)
same,"Irritability, drug related TEAE: No. (number of observations)",[2]; single oral dose 80 mg (N=6),1
same,"Nervous System Disorders, drug related TEAEs: N (%) (number of subjects)",[2]; single oral dose 80 mg (N=6),4 (66.7) N (%)
same,"Nervous System Disorders, drug related TEAEs: No. (number of observations)",[2]; single oral dose 80 mg (N=6),7
same,"Psychiatric Disorders, drug related TEAEs: N (%) (number of subjects)",[2]; single oral dose 80 mg (N=6),1 (16.7) N (%)
same,"Psychiatric Disorders, drug related TEAEs: No. (number of observations)",[2]; single oral dose 80 mg (N=6),1
same,"Somnolence, drug related TEAE: N (%) (number of subjects)",[2]; single oral dose 80 mg (N=6),2 (33.3) N (%)
same,"Somnolence, drug related TEAE: No. (number of observations)",[2]; single oral dose 80 mg (N=6),2
same,intensity of drug related TEAEs,[2]; single oral doses 0.3-80 mg,mild in intensity
same,neurological examination,[2]; single oral doses 0.3-80 mg,No abnormalities were found
same,serious adverse events (SAEs),[2]; single oral doses 0.3-80 mg,no serious adverse events
same,safety and tolerability of single oral dose,"[2]; up to 80 mg, healthy male subjects",safe and well tolerated
same,largest observed mean increase from baseline QTcF,[3]; 12 h post-dose at 60 mg,+6.1 ms
same,"single QT-interval value, any subject",[3]; no subject above this value,≤ 500 ms
same,"single corrected QT-interval Fridericia (QTcF) value, any subject",[3]; no subject above this value,≤ 450 ms
same,QT-interval prolongation,[3]; single oral doses 0.3-80 mg,no QT-interval prolongations were observed
same,no observed adverse effect level (NOAEL),[4],150 mg/kg/day
same,"onset time of dizziness, hypersomnia, somnolence after dose administration",[5],up to 4 h
same,geometric mean AUCinf,[6]; 0.3 mg single oral dose,120 ng·h/mL
same,geometric mean Cmax,[6]; 0.3 mg single oral dose,3.42 ng/mL
same,geometric mean AUCinf,[6]; 80 mg single oral dose,"25,500 ng*h/mL"
same,geometric mean Cmax,[6]; 80 mg single oral dose,854 ng/mL
same,deviation from dose proportionality for Cmax,"[6]; 0.3-80 mg, mixed-effect power model",approximately 5%
same,dose proportionality based on AUC0-last and AUCinf,[6]; entire dose range 0.3-80 mg,dose-proportional
same,median Tmax,"[6]; oral capsule, fasting condition",1.5 h
same,IC50,[7],13 nM
same,median Tmax,[8]; fasting state,1.5 h
same,median Tmax,[8]; fed state (standardized high fat meal),4.0 h
same,"effect of food on extent of exposure (Cmax, AUC0-last, AUCinf)",[8]; fed vs fasted (n = 8),No clinically relevant effect of food
